Consider 16 molecules from PubChem BioAssay (NCI).

Assay in all cases: inhibition of tumour cell growth, NCI panel, 48 h
Experiment [1] has as its system NCI/ADR-RES ovarian.
Experiment [2] concerns CAKI-1 renal.
In experiment [3] the test system is SF-268 CNS.
The subject of experiment [4] is RPMI-8226 leukemia.
For experiment [5], the system named is PC-3 prostate.
In experiment [6] the test system is SF-539 CNS.
Experiment [7] deals with SW-620 colon.
Experiment [8] concerns MALME-3M melanoma.
Experiment [9] concerns SK-MEL-2 melanoma.
Experiment [10] relates to A549 NSCLC.
Experiment [11] relates to BT-549 breast.
In experiment [12] the test system is OVCAR-5 ovarian.
In experiment [13] the test system is HS 578T breast.
In experiment [14] the test system is LOX IMVI melanoma.
Experiment [15] has as its system OVCAR-4 ovarian.
Experiment [16] deals with T-47D breast.
The subject of experiment [17] is SK-MEL-5 melanoma.
Experiment [18] deals with SNB-19 CNS.
The test system of experiment [19] is DU-145 prostate.
The test system of experiment [20] is OVCAR-3 ovarian.

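The compound was tested at five concentrations on cells cultured in 96-well plates, with a 48-hour exposure period. TGI: total growth inhibition.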

Regarding `COc1cc(/C=C/C2=NN(c3cccc(S(=O)(=O)O)c3)C3(C2)C(Cl)C(=O)N3c2nc3ccccc3s2)ccc1O` (stereo not drawn), the TGI was 99.4 µM in experiment [1]; 33 µM in experiment [2]; 50.5 µM in [3]; 37.6 µM in [4]; above 100 µM in experiment [5]; 46 µM in [6]. In addition, the TGI in experiment [7] was 48 µM; in experiment [8], 34.5 µM; in [9], above 100 µM; in experiment [10] it was above 100 µM; in experiment [11] it was 29.1 µM; in [12], 37.9 µM. The TGI in experiment [13] was above 100 µM; in [14], 27.5 µM; in experiment [15], 30.4 µM; in experiment [16], 26.4 µM; in [17], 85.2 µM; in experiment [18], above 100 µM.
Take `CCOC(=O)C(NC(=O)NC(C(=O)OCC)C(=O)OCC)C(=O)OCC`: the TGI in [1], in [2], in experiment [3], in experiment [4], in experiment [5] and in experiment [19] was above 100 µM in each case. Further, the TGI in experiment [20], in [6], in experiment [7], in [8], in [9] and in experiment [10] was above 100 µM throughout. For the same molecule, the TGI in [11], in experiment [12], in [13], in experiment [17] and in [18] was above 100 µM each time.
Turning to `CCc1cc2c(cc1CCCC(=O)O)CC1(Cc3ccc(C(=O)O)cc3C1)C2` (stereo not drawn), the TGI in [1], in experiment [2], in [3], in experiment [4], in [5] and in experiment [19] was above 100 µM each time. For the same molecule, the TGI in [20], in [6], in experiment [7], in [8], in experiment [9] and in experiment [10] was above 100 µM each time. Moreover, the TGI in experiment [12], in experiment [13], in experiment [14], in experiment [15], in [16] and in [17] was above 100 µM throughout. The TGI in experiment [18] was above 100 µM.
Turning to `CC1CC/C(=C\c2ccc(N(C)C)cc2)C(=O)/C1=C/c1ccc(N(C)C)cc1` (stereo not drawn), the TGI in [1], in experiment [2], in [5], in experiment [20], in experiment [6] and in experiment [7] was above 100 µM each time. The TGI in [8], in experiment [9], in experiment [10], in experiment [11], in [12] and in experiment [14] was above 100 µM throughout. Also, the TGI in [15], in experiment [16] and in experiment [17] was above 100 µM throughout.
Take `O=C1CCc2cc3c(cc21)CC1(Cc2ccccc2C1)C3`: the TGI in [1] was above 60.1 µM; in experiment [2] it was 47.2 µM; in experiment [3], above 100 µM; in [4] it was 25.8 µM; in [5], above 93.6 µM; in experiment [19], above 100 µM. The TGI was above 80.8 µM in experiment [20]; 56.2 µM in [6]; above 100 µM in experiment [7]; above 100 µM in experiment [8]; 6.37 µM in [9]; above 100 µM in experiment [10]. Besides, the TGI in experiment [12] is above 86.9 µM; in experiment [13], above 100 µM; in experiment [14] it was above 100 µM; in [15], above 100 µM; in experiment [16], above 100 µM; in experiment [17], 17.8 µM. This molecule also returned a TGI in [18] above 100 µM.
With `Cc1ncc([N+](=O)[O-])n1CCNC(=O)CCCn1cnc([N+](=O)[O-])n1`, the TGI in experiment [1], in experiment [2], in experiment [3], in [4], in experiment [5] and in experiment [19] was above 100 µM throughout. Further, the TGI in [20], in experiment [6], in experiment [7], in [8], in experiment [9] and in experiment [10] was above 100 µM each time. The TGI in experiment [12], in [13], in [14], in [15], in [16] and in experiment [17] was above 100 µM in each case. In addition, the TGI in [18] is above 100 µM.
As for `CCOC(=O)N1CCN(C(=O)Nc2cccc3ccccc23)CC1`, the TGI in experiment [1], in experiment [2], in experiment [3], in [4], in experiment [5] and in experiment [19] was above 10 µM throughout. Besides, the TGI in experiment [20], in experiment [6], in experiment [7], in experiment [8], in [9] and in experiment [10] was above 10 µM each time. Further, the TGI in [12], in [13], in experiment [14], in [15], in experiment [16] and in experiment [17] was above 10 µM throughout. The same molecule displayed a TGI in experiment [18] above 10 µM.
Consider `C=C(Br)CN(CC(=C)Br)C(C)=O`, for which the TGI in experiment [1], in experiment [2], in experiment [3], in experiment [4], in experiment [5] and in [19] was above 100 µM in each case. The TGI in [20], in experiment [6], in [7], in [8], in experiment [9] and in experiment [10] was above 100 µM throughout. Moreover, the TGI in [12], in experiment [13], in [14], in experiment [15], in experiment [16] and in [17] was above 100 µM in each case. Moreover, the TGI in experiment [18] is above 100 µM.
As to `CN1C(=O)C(O)CC1c1cccc(F)c1` (stereo not drawn), the TGI in experiment [1], in experiment [2], in experiment [4], in [5], in experiment [19] and in [20] was above 100 µM each time. The TGI in experiment [6], in experiment [7], in experiment [8], in experiment [9], in [10] and in experiment [11] was above 100 µM throughout. Further, the TGI in experiment [12], in experiment [14], in experiment [15], in experiment [17] and in [18] was above 100 µM each time.
On to `C1=NCCOCCN=Cc2ccccc2OCc2cccc(n2)COc2ccccc21`, for which the TGI in [1] is 13.4 µM; in [3], above 25 µM; in experiment [4], 14 µM; in experiment [5] it was above 25 µM; in experiment [19] it was 20.7 µM; in experiment [20], 9.01 µM. Also, the TGI in experiment [6] is 9.13 µM; in experiment [7], above 25 µM; in experiment [8] it was 22.5 µM; in experiment [9], above 25 µM; in experiment [10] it was above 25 µM; in experiment [11], 19.1 µM. Moreover, the TGI in experiment [12] is above 25 µM; in experiment [13], 15 µM; in [15] it was above 25 µM; in experiment [18], above 25 µM.
Turning to `CN=C(N)N/N=C(\C)c1ccc2oc3ccc(/C(C)=N/NC(N)=NC)cc3c2c1`, the TGI was above 100 µM in [1]; 83 µM in experiment [2]; 6.41 µM in [4]; 10.7 µM in experiment [5]; above 100 µM in experiment [19]; above 100 µM in experiment [20]. The TGI in experiment [7] is 5.33 µM; in [9], 5.24 µM; in experiment [10], above 100 µM; in experiment [11], above 22.8 µM; in [12], above 87 µM; in experiment [15], above 100 µM. Also, the TGI in [17] and in experiment [18] was above 100 µM each time.
In the case of `O=[N+]([O-])/C(C(Cl)=C(Cl)Cl)=C1/OCCS1`, the TGI in experiment [1] was 33.6 µM; in experiment [2], 72.7 µM; in experiment [3], 71.1 µM; in experiment [4], 66.2 µM; in experiment [5], above 100 µM; in experiment [19] it was above 100 µM. Also, the TGI in experiment [20] worked out at 36.8 µM; in experiment [6], 42.9 µM; in experiment [8], 40.8 µM; in [9] it was 57.2 µM; in experiment [10] it was 55.6 µM; in [12], 92.6 µM. Moreover, the TGI in experiment [13] was 87.6 µM; in [14], 41.8 µM; in [15] it was above 100 µM; in experiment [16], 91 µM; in [17], 34 µM; in experiment [18], above 100 µM.
`NC1CNC(=O)c2cscc21` (stereo not drawn): the TGI in experiment [1], in experiment [2], in experiment [3], in [4], in experiment [5] and in experiment [19] was above 100 µM in each case. Further, the TGI in [20], in experiment [7], in experiment [8], in [10], in experiment [11] and in experiment [12] was above 100 µM throughout. Besides, the TGI in experiment [13], in [14], in experiment [15], in experiment [17] and in experiment [18] was above 100 µM in each case.
Take `CCOC(=O)C(O)(NC(=O)Nc1ccc(F)cc1)C(F)(F)F` (stereo not drawn): the TGI in experiment [1], in [2], in experiment [3], in experiment [4], in [5] and in [6] was above 100 µM in each case. For the same molecule, the TGI in experiment [7], in experiment [9], in experiment [10], in experiment [11], in experiment [12] and in [13] was above 100 µM throughout. The TGI in experiment [14], in experiment [16], in experiment [17] and in [18] was above 100 µM throughout.
On to `O=[N+]([O-])c1nccn1CC1OC(n2ccnc2[N+](=O)[O-])C(O)C(O)C1O` (stereo not drawn), for which the TGI in experiment [4], in experiment [5], in experiment [7], in experiment [8], in experiment [9] and in experiment [10] was above 100 µM in each case. For the same molecule, the TGI in experiment [11], in experiment [12], in [13], in experiment [16], in experiment [17] and in [18] was above 100 µM throughout.
With `CC(C)CNC(=O)Cn1c2c(c3ccccc31)CCCC2`, the TGI in [1], in [2], in [3], in [4], in experiment [5] and in [20] was above 100 µM throughout. For the same molecule, the TGI in experiment [6], in [7], in experiment [8], in experiment [9], in experiment [10] and in experiment [11] was above 100 µM throughout. For the same molecule, the TGI in experiment [12], in [13], in experiment [14], in experiment [15], in experiment [17] and in [18] was above 100 µM in each case.
